System: infection in critically ill and injured adult ICU subjects
Assay: Variation (standard deviation) of exhaled 13CO2/12CO2 breath delta value (BDV) as a marker of response to antimicrobial treatment
Type: in vivo, human
Details: single ICU subject of FIG. 15, BAL culture positive for Aspergillus fumigatus; cefuroxime days 1 through 7, cefepime added after day seven
Protocol: The study was conducted as a multi-center prospective study, at four academic research hospitals, to assess exhaled ^13CO2/^12CO2 BDV as an indicator of infection in 20 critically ill and injured adult ICU subjects. Critically ill adult ICU subjects who were not suspected of having an infection at the time of ICU admission were enrolled as study subjects.
Exhaled breath samples were collected upon subject enrollment and every four hours thereafter until the subject was discharged home, transferred to a general care unit/status, or after seven days of breath sample collection, whichever came first. Each sample was collected in four-hour intervals, calculated from the initial sample time, with a window of ±1 hour. Samples collected outside of the specified time interval were still analyzed. […]
Breath samples were shipped to a central laboratory (Isomark, LLC, Madison, Wis.) within 48 hours of final collection from each subject. The breath samples were analyzed using the Canary™ device. The ^13CO2/^12CO2 ratio of each sample was determined from direct measurement and calculated using Pee Dee Belemnite (PDB) as a standard reference: […]
where BDV is expressed as parts per mil (‰). […] The delta over baseline (DOB) was then calculated by subtracting the baseline sample from subsequent samples as described: […]

SMILES | mean variation of BDV
CO/N=C(\C(=O)N[C@@H]1C(=O)N2C(C(=O)[O-])=C(C[N+]3(C)CCCC3)CS[C@H]12)c1csc(N)n1 [cefepime] | 0.37 ‰
CO/N=C(\C(=O)N[C@@H]1C(=O)N2C(C(=O)O)=C(COC(N)=O)CS[C@H]12)c1ccco1 [cefuroxime] | 0.72 ‰

Reference: patent US20200056988A1, “METHOD OF DETERMINING THE EFFICACY OF ANTIMICROBIALS” (Wisconsin Alumni Research Foundation, priority 2018, published 2020)
